Results reported in patent US6809091B1, “Substances capable of inducing apoptosis” (Takara Bio Inc., priority 1998, dated 2004).

Key:
[1] = test system: heat shock protein of 70 kDa in HL-60; experiment: induction of heat shock protein of 70 kDa, SDS-PAGE and blotting; assay type: cell-based, human; set-up: key: “−” means no induction; “±” means a little induction; “+” shows the intensity of induction and the more the “+”, the more the induction; ++: “+” shows the intensity of induction and the more the “+”, the more the induction; +++: “+” shows the intensity of induction and the more the “+”, the more the induction; conditions: six hours
Method: Each 5 ml of an RPMI 1640 medium containing 10% of FBS containing 2×10^5 cells/ml of HL-60 (ATCC CCL-240) were placed in each well of a six-well plate, incubated at 37° C. for 24 hours in the presence of 5% CO2, then 4,5-dihydroxy-2-pentenal was added to make the final concentration 0, 12.5, 25, 50 or 100 μM or 4-hydroxy-2-cyclopenten-1-one was added to make the final concentration 0, 2.5, 5, 10, 20, 40 or 80 μM and the mixture was incubated for six hours more.
After completion of the incubation, cell numbers were counted and then the cells were recovered by centrifugation and washed with PBS to prepare the cells treated with each of the samples. In addition, cells which were heated at 45° C. for five minutes followed by subjecting to the same incubation were prepared as well.
The cells treated as such were then subjected to an SDS-PAGE according to a method mentioned in “Molecular Cloning” (Cold Spring Harbor Laboratory Press, 1989). Thus, the cells were suspended in an SDS-PAGE sample buffer to make the concentration 2.5×10^6 cells/ml, the resulting cell suspension was treated at 100° C. for ten minutes, each 5 μl thereof were applied to two sheets of SDS-PAGE gel (a 5% stacking gel and a 10% separation gel) and an electrophoresis was carried out. One of the gels was stained with Coomassie while another was subjected to a blotting to polyvinylidene difluoride transfer membrane (Immobilon™ manufactured by MILLIPORE; catalog no. IPVH000-10). This membrane was subjected to a blocking overnight at 4° C. using Block Ace (manufactured by Dainippon Pharmaceutical; catalog no. UK-B25).
The membrane which was subjected to a blocking as such was made to react with monoclonal antibody HSP 72/73 (Ab-1) (manufactured by Oncogene Research Products; catalog no. HSP01) which specifically reacted with heat-induced heat shock protein of 70 kDa, washed with TBS containing 0.05% Tween 20 and further washed with TBS. After that, it was made to react with peroxidase-compounded secondary antibody HRP-Rabbit Anti Mouse IgG (H+L) (manufactured by ZYMED Laboratories; catalog no. 61-6520) and washed as same as in the previous operation. The membrane which was made to react with the primary antibody and the secondary antibody as such was made to react with RENAISSANCE™ (a chemiluminol reagent manufactured by Dupont NEN, catalog no. NEL-100) and then exposed to X-ray film to confirm the induction of the heat shock protein of 70 kDa.

[2] = test system: hIGF-1 production in Hs68 cells; experiment: induction of hIGF-1 production, ELISA; assay type: cell-based, human; conditions: for time at which the inducing activity of the hIGF production became maximum: 100 μM or more
Method: Hs 68 cells (ATCC CRL-1635) which were human […] were incubated on a D-MEM medium (manufactured by Gibco BRL) containing 10% of fetal bovine serum (FBS manufactured by BioWhittaker) at 37° C. in the presence of 5% of CO2 until the cells were saturated in the culture medium, a trypsin-EDTA solution (manufactured by BioWhittaker) was suspended in the above medium to make 3×10^5 cells/ml and each 200 μl of the suspension were placed in each well of a 96-well microtiter plate. After five days from the incubation, the medium was discarded at the stage where the cells were almost saturated in the culture medium and a medium containing 5, 10, 20, 40, 100 or 200 μM of 4,5-dihydroxy-2-pentenal or 4-hydroxy-2-cyclopenten-1-one was added thereto. A time course of 96 hours was adopted and, every 24 hours, the supernatant liquid of the incubated medium was recovered and the influence of 4,5-dihydroxy-2-pentenal and 4-hydroxy-2-cyclopenten-1-one on the induction of hIGF-1 production in Hs68 cells was measured using an ELISA-kit for hIGF-1 (manufactured by Diagnostic System Labo).

[3] = test system: RAW 264.7 cells; experiment: cell growth in the NO production test; assay type: cell-based; conditions: final concentration of 10 μM
[4] = test system: human FGF-β; experiment: cytokine production in DSEK cells, ELISA; assay type: cell-based; conditions: DSEK cell incubation, supernatant every 24 hours
Method: Now, in the DSEK cell incubation, 150 μl/well of the supernatant liquid of the medium were recovered every 24 hours and influence of 4-hydroxy-2-cyclopenten-1-one or 4,5-dihydroxy-2-pentenal on the production of cytokines (human TGF-β, human FGF-β, human IL-1α and human IL-10) was measured using an ELISA-kit specific to each of the cytokine (the kit manufactured by INTERGEN or human FGF-β and human IL-10; and the kit manufactured by Promega for human IL-1α and human TGF-β).

Compound	Inducing Activity of the hIGF-1 Production ([2]; 40 μM, 24 hours) [ng/mL]	Inducing Activity of the hIGF-1 Production ([2]; 40 μM, 48 hours) [ng/mL]	Inducing Activity of the hIGF-1 Production ([2]; 40 μM, 72 hours) [ng/mL]	Inducing Activity of the hIGF-1 Production ([2]; 40 μM, 96 hours) [ng/mL]	time at which the inducing activity of the hIGF production became maximum [2] [h]	Inducing Activity of the hIGF-1 Production ([2]; 100 μM, 24 hours) [ng/mL]	Inducing Activity of the hIGF-1 Production ([2]; 100 μM, 48 hours) [ng/mL]	Inducing Activity of the hIGF-1 Production ([2]; 100 μM, 72 hours) [ng/mL]	Inducing Activity of the hIGF-1 Production ([2]; 100 μM, 96 hours) [ng/mL]	Inducing Activity of the hIGF-1 Production ([2]; 200 μM, 24 hours) [ng/mL]	Inducing Activity of the hIGF-1 Production ([2]; 200 μM, 48 hours) [ng/mL]	Inducing Activity of the hIGF-1 Production ([2]; 200 μM, 72 hours) [ng/mL]	Inducing Activity of the hIGF-1 Production ([2]; 200 μM, 96 hours) [ng/mL]	production of human FGF-β [4]	other results
O=CC=CC(O)CO (single isomer, unassigned) [4,5-dihydroxy-2-pentenal, trans-4,5-dihydroxy-2-pentenal]	0	0	0	0	24	15.3	10.0	5.2	4.6	11.3	11.1	9.9	4.5		intensity of induction of heat shock protein of 70 kDa ([1]; HL-60, 25 μM): ±; intensity of induction of heat shock protein of 70 kDa ([1]; HL-60, 50 μM): +++; intensity of induction of heat shock protein of 70 kDa ([1]; HL-60, 100 μM): −
O=C/C=C/C1COC(/C=C/C(O)CO)O1 (stereo not drawn) [2-(trans-3,4-dihydroxy-1-butenyl)-4-(trans-2-formylvinyl)-1,3-dioxolane]															inhibition of cell growth [3]: no inhibition of cell growth was noted at all
Nc1nc2c(ncn2C2C=CC(=O)C2)c(=O)[nH]1 (stereo not shown) [4-(9-guaninyl)-2-cyclopenten-1-one]														inhibited	
O=C1C=CC(O)C1 (stereo not shown) [4-hydroxy-2-cyclopenten-1-one]	0	0	0	0	24	39.9	10.0	9.6	4.4	37.9	10.4	9.9	4.2	inhibited	intensity of induction of heat shock protein of 70 kDa ([1]; HL-60, 5 μM): ±; intensity of induction of heat shock protein of 70 kDa ([1]; HL-60, 20 μM): +++; intensity of induction of heat shock protein of 70 kDa ([1]; HL-60, 40 μM): ++; intensity of induction of heat shock protein of 70 kDa ([1]; HL-60, 80 μM): ±; hIGF-1 inducing activity [2]: stronger than that of 4,5-dihydroxy-2-pentenal
